# System: bacteria in oilfield waste water
# Settings: 10 mL of 30 vol % hydrogen peroxide to 250 mL raw oilfield waste water (Sample A and Sample B), room temperature, stirred; before vs after treatment; FIGS. 4 and 5
# Method: The number density of the bacteria present in the oilfield waste water is determined before or after introduction of the biocide, the oxidizer, or a combination thereof. Determining the number density of the bacteria is accomplished in various manners. In an embodiment, the number density of the bacteria is determined by particle sizing such as by light scattering. In another embodiment, a small volume of oilfield water is disposed on an agar plate or slant tube and subjected to microbiological counting methods. Alternatively, the number density of the bacteria is determined by quantifying an amount of bacterial adenosine triphosphate (ATP) in a sample of the oilfield waste water, wherein the ATP is retrieved from living bacterial cells. The sample size is a portion or all of the oilfield waste water. […] The ATP quantification is accomplished by lysing the bacterial cells using an enzyme to release ATP into the sample of the oilfield waste water. An assay for the amount of ATP includes introducing a luminescent enzyme such as firefly luciferase to the sample and thereafter collecting luminescence from the luminescent enzyme. […] Thereafter, the number density of bacteria in the oilfield waste water is calculated from the amount of bacterial ATP. […] An aliquot of Sample A and Sample B was collected and subjected to ATP quantification before and after treatment with the hydrogen peroxide.
smiles,measurement,value
OO [hydrogen peroxide],number density of bacteria in the treated water,drastically decreases the number density of bacteria

# Source: patent publication US20140374103A1, “TREATING AND RECYLCING OILFIELD WASTE WATER” (BAKER HUGHES INCORPORATED, priority 2013, published 2014)
